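Step 1: Grow cells in 96-well plates. Step 2: Expose to compound for 48 hours at 5 concentrations. Step 3: Interpolate endpoints linearly; if unreached, use highest concentration. The concentration for 50% growth inhibition is given as GI50.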 Activity calls are given as the source filed them. Rule as the data show it: active = GI50 up to about 1.1 µM and inactive = higher.
Legend:
Assay in all cases: DTP human tumour cell line panel, 48 h
[1] = test system: CCRF-CEM
[2] = test system: OVCAR-4
[3] = test system: 786-0
[4] = test system: M19-MEL
[5] = test system: NCI-H460
[6] = test system: IGROV-1
[7] = test system: OVCAR-8
[8] = test system: RPMI-8226
[9] = test system: HCT-116
[10] = test system: TK-10
[11] = test system: SK-MEL-2
[12] = test system: U-251
[13] = test system: M14
[14] = test system: SR
[15] = test system: A498
[16] = test system: MDA-N
[17] = test system: Hs-578T
[18] = test system: MDA-MB-231
[19] = test system: BT-549
[20] = test system: MCF7

Measured: GI50

Cc1ccc(S(=O)(=O)OC2CC=CC2)cc1
inactive: [1] > 100 µM | [2] > 100 µM | [3] > 100 µM | [4] > 100 µM | [5] > 100 µM | [6] > 100 µM | [7] > 100 µM | [8] > 100 µM | [9] > 100 µM | [10] > 100 µM | [11] > 100 µM | [12] > 100 µM | [13] > 100 µM

COc1ccc(/N=c2\ssc3c(=S)ssc23)cc1
inactive: [14] 3.61 µM | [1] 3.68 µM | [2] 34.9 µM | [3] 34.1 µM | [4] 30.2 µM | [6] 5.94 µM | [7] 17 µM | [8] 9.91 µM | [9] 26 µM | [10] 57.9 µM | [11] 60 µM | [12] 28.4 µM | [13] 20 µM

O=C1Nc2ccccc2C1(O)C/C(=N/O)c1ccc2ccccc2c1 (stereo unspecified)
inactive: [1] 47.2 µM | [2] > 100 µM | [15] > 100 µM | [3] > 100 µM | [4] 45.5 µM | [5] > 100 µM | [7] > 100 µM | [8] 87.1 µM | [9] > 100 µM | [10] > 100 µM | [11] > 100 µM | [12] 86.5 µM | [13] > 100 µM

COc1cc(C2C(C(=O)O)=C(C)Oc3cc4c(cc32)OCO4)cc(OC)c1OC (stereo unspecified)
inactive: [1] 29.9 µM | [2] 50.8 µM | [3] 37.2 µM | [4] 30.8 µM | [5] 37.7 µM | [6] 58.2 µM | [7] 51.2 µM | [8] > 10 µM | [9] 37.1 µM | [10] 88.3 µM | [12] 36.6 µM | [13] 59 µM

COc1ccc(/C=C2/C(=O)N(C(=O)c3ccc(Cl)cc3)N=C2C)cc1OC
inactive: [1] > 100 µM | [2] > 100 µM | [15] > 100 µM | [3] > 100 µM | [4] > 100 µM | [5] > 100 µM | [6] > 100 µM | [7] > 100 µM | [8] > 100 µM | [9] > 100 µM | [10] > 100 µM | [11] > 100 µM | [12] > 100 µM | [13] > 100 µM

OCCCOC(c1ccccc1)(c1ccccc1)c1ccccc1
inactive: [14] > 100 µM | [1] > 100 µM | [2] > 100 µM | [3] > 100 µM | [4] > 100 µM | [5] > 100 µM | [6] > 100 µM | [7] > 100 µM | [8] > 100 µM | [9] 50.7 µM | [10] > 100 µM | [12] 51.5 µM | [13] > 100 µM

COc1ccc(S(=O)(=O)N(C)CC(=O)O)cc1
inactive: [1] > 100 µM | [2] > 100 µM | [15] > 100 µM | [3] > 100 µM | [4] > 100 µM | [5] > 100 µM | [6] > 100 µM | [7] > 100 µM | [8] > 100 µM | [10] > 100 µM | [11] > 100 µM | [12] > 100 µM | [13] > 100 µM

CC(=O)Nc1cc(N(CCOS(C)(=O)=O)CCOS(C)(=O)=O)ccc1N=O
inactive: [14] > 100 µM | [1] > 100 µM | [2] > 100 µM | [3] > 100 µM | [4] > 100 µM | [5] > 100 µM | [6] > 100 µM | [7] > 100 µM | [8] > 100 µM | [9] > 100 µM | [10] > 100 µM | [11] > 100 µM | [12] > 100 µM | [13] > 100 µM

COc1ccccc1/C=N/N=C(\N)NO
inactive: [14] 31.8 µM | [1] 16.7 µM | [2] 38.4 µM | [15] 33.5 µM | [3] 23 µM | [4] 19.8 µM | [5] 4.14 µM | [6] 96.4 µM | [7] > 10 µM | [8] 29.2 µM | [9] 25.6 µM | [11] 23.8 µM | [12] 48.3 µM

COc1ccc(C2(CC(C)C)CCNC2)cc1OC (stereo unspecified)
inactive: [16] > 100 µM | [14] 76.4 µM | [17] > 100 µM | [1] > 100 µM | [2] > 100 µM | [15] > 100 µM | [3] > 100 µM | [5] > 100 µM | [6] 26.5 µM | [7] > 100 µM | [8] 61.1 µM | [9] > 100 µM | [18] > 100 µM | [19] > 100 µM | [10] > 100 µM | [11] > 100 µM | [12] > 100 µM | [13] > 100 µM | [20] 84.1 µM

Cc1cc2c(c(C(N)=O)c1C)-c1ccccc1C2=O
inactive: [1] > 100 µM | [2] > 100 µM | [15] 51.4 µM | [3] > 100 µM | [4] > 100 µM | [5] > 100 µM | [6] > 100 µM | [7] > 100 µM | [8] > 100 µM | [9] > 100 µM | [10] > 100 µM | [11] > 100 µM | [12] > 100 µM | [13] > 100 µM

Source: ChEMBL document CHEMBL1201862, “PubChem BioAssay data set” (2004)
